Measurements: the supplement of paper PMC10307832

These cell lines were tested with CC(C)=CC[C@@H](O)C1=CC(=O)c2c(O)ccc(O)c2C1=O [Shikonin] + CS(=O)(=O)CCNCc1ccc(-c2ccc3ncnc(Nc4ccc(OCc5cccc(F)c5)c(Cl)c4)c3c2)o1 [Lapatinib] (partner 2 µM) (assay: relative viability (nuclei count vs DMSO), 5 days (fraction); higher = more cells survive). Conditions: first compound 1 µM.
In short: (§1)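 A single step with final 0.05% Triton X-100, 1% formaldehyde and 1 ug/ml Hoechst fixed the cells and stained nuclei 5 days after treatment. Lung cancer cell lines in 1536-well plates had been treated by pin tool the day after seeding with one drug alone or a fixed anchor-drug dose plus five library-drug doses (not always all listed) in √10 steps, and nuclei were counted on 4× images. Relative viability is the ratio of nuclei in treated wells to nuclei in vehicle wells, taken as the median of duplicate plates.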
NCI-H1563 gave a relative viability of 0.779. In the case of NCI-H1944, the relative viability is reported as 0.933. With NCI-H1975 the relative viability was 0.896. Cell Line SW 1573 has a relative viability of 1.19. With ABC-1 the relative viability was 1.2. With NCI-H358 the relative viability was 0.391. With NCI-H727 the relative viability was 0.604. SK-LU-1 showed a relative viability of 0.786.

Each cell line was assayed with CC(C)=CC[C@@H](O)C1=CC(=O)c2c(O)ccc(O)c2C1=O [Shikonin] + C[C@]1(O)C[C@@H](c2nc(-c3ccc4ccc(-c5ccccc5)nc4c3)c3c(N)nccn32)C1 [Linsitinib] (partner 1 µM) in the same assay as above. Conditions: first compound 0.01 µM.
In short: as §1
Work on NCI-H2023 yielded a relative viability of 0.655. For A-427, the relative viability was 1.11. NCI-H460 was tested, and the relative viability was 0.914. NCI-H838 was tested, and the relative viability was 1.05. NCI-H1734 gave a relative viability of 0.839. NCI-H596 gave a relative viability of 1.04. NCI-H2405 gave a relative viability of 0.903. Cell Line 201T has a relative viability of 1.01. In the case of NCI-H1915, the relative viability is reported as 1.05. With HCC-827 the relative viability was 0.909. LXF-289 was tested, and the relative viability was 1.07. Work on NCI-H2347 yielded a relative viability of 0.976. NCI-H661 gave a relative viability of 0.724. Cell Line CAL-12T has a relative viability of 0.754. NCI-H1651 showed a relative viability of 0.974. Work on EPLC-272H yielded a relative viability of 1.18. Work on NCI-H23 yielded a relative viability of 0.592. NCI-H1792 showed a relative viability of 0.511. In the case of NCI-H1355, the relative viability is reported as 0.764. Cell Line NCI-H322M has a relative viability of 0.919. Cell Line NCI-H1437 has a relative viability of 1.28. With NCI-H1755 the relative viability was 1.04. With NCI-H2085 the relative viability was 0.797. In the case of HCC-15, the relative viability is reported as 0.99. For RERF-LC-KJ, the relative viability was 0.985. EKVX showed a relative viability of 1.04. For LC-2-ad, the relative viability was 0.769. NCI-H1563 was tested, and the relative viability was 1.27. Cell Line NCI-H1944 has a relative viability of 1.2. Work on NCI-H1975 yielded a relative viability of 1.11. Cell Line SW 1573 has a relative viability of 0.968. For ABC-1, the relative viability was 0.968. Work on NCI-H358 yielded a relative viability of 0.916. Cell Line NCI-H727 has a relative viability of 0.165. In the case of SK-LU-1, the relative viability is reported as 1.26.

Same assay, conditions: first compound 0.1 µM
With NCI-H2023 the relative viability was 0.831. A-427 showed a relative viability of 1.21. For NCI-H460, the relative viability was 0.819. NCI-H838 was tested, and the relative viability was 1.08. NCI-H1734 showed a relative viability of 0.91. NCI-H596 showed a relative viability of 0.887. NCI-H2405 showed a relative viability of 0.982. 201T showed a relative viability of 1.04. NCI-H1915 gave a relative viability of 1.16. Cell Line HCC-827 has a relative viability of 1.09. In the case of LXF-289, the relative viability is reported as 0.911. NCI-H2347 gave a relative viability of 0.987. With NCI-H661 the relative viability was 0.575. Work on CAL-12T yielded a relative viability of 0.815. For NCI-H1651, the relative viability was 1.12. EPLC-272H was tested, and the relative viability was 1.32. NCI-H23 showed a relative viability of 0.489. For NCI-H1792, the relative viability was 0.388. NCI-H1355 was tested, and the relative viability was 0.943. NCI-H322M was tested, and the relative viability was 0.837. In the case of NCI-H1437, the relative viability is reported as 1.05. NCI-H1755 was tested, and the relative viability was 1.04. In the case of NCI-H2085, the relative viability is reported as 0.903. With HCC-15 the relative viability was 0.906. For RERF-LC-KJ, the relative viability was 0.896. In the case of EKVX, the relative viability is reported as 0.962. LC-2-ad was tested, and the relative viability was 0.884. For NCI-H1563, the relative viability was 1.29. NCI-H1944 gave a relative viability of 1.44. Cell Line NCI-H1975 has a relative viability of 0.985. Cell Line SW 1573 has a relative viability of 0.772. Cell Line ABC-1 has a relative viability of 0.754. NCI-H358 gave a relative viability of 0.688. NCI-H727 was tested, and the relative viability was 0.252. SK-LU-1 gave a relative viability of 1.27.

Same assay, conditions: first compound 0.3162 µM
NCI-H2023 was tested, and the relative viability was 0.687. Work on A-427 yielded a relative viability of 1.19. With NCI-H460 the relative viability was 0.992. For NCI-H838, the relative viability was 1.07. With NCI-H1734 the relative viability was 0.939. NCI-H596 showed a relative viability of 1.16. Work on NCI-H2405 yielded a relative viability of 1.01. For 201T, the relative viability was 1.08. NCI-H1915 was tested, and the relative viability was 1.15. HCC-827 showed a relative viability of 0.999. Work on LXF-289 yielded a relative viability of 1. Cell Line NCI-H2347 has a relative viability of 1.07. With NCI-H661 the relative viability was 0.656. CAL-12T showed a relative viability of 0.715. With NCI-H1651 the relative viability was 0.996. EPLC-272H gave a relative viability of 1.2. For NCI-H23, the relative viability was 0.696. Work on NCI-H1792 yielded a relative viability of 0.658. For NCI-H1355, the relative viability was 0.887. In the case of NCI-H322M, the relative viability is reported as 0.993. Work on NCI-H1437 yielded a relative viability of 1.23. In the case of NCI-H1755, the relative viability is reported as 1.05. With NCI-H2085 the relative viability was 0.867. With HCC-15 the relative viability was 0.874. RERF-LC-KJ gave a relative viability of 0.867. EKVX gave a relative viability of 1.29. Cell Line LC-2-ad has a relative viability of 0.833. NCI-H1563 showed a relative viability of 1.23. NCI-H1944 gave a relative viability of 1.35. For NCI-H1975, the relative viability was 1.01. For SW 1573, the relative viability was 0.887. ABC-1 was tested, and the relative viability was 0.689. NCI-H358 showed a relative viability of 0.857. In the case of NCI-H727, the relative viability is reported as 0.319. With SK-LU-1 the relative viability was 0.999.

Same assay, conditions: first compound 1 µM
In the case of NCI-H2023, the relative viability is reported as 0.629. Cell Line A-427 has a relative viability of 1.14. NCI-H460 showed a relative viability of 0.904. Cell Line NCI-H838 has a relative viability of 1.03. In the case of NCI-H1734, the relative viability is reported as 0.857. In the case of NCI-H596, the relative viability is reported as 1.06. Work on NCI-H2405 yielded a relative viability of 0.914. In the case of 201T, the relative viability is reported as 1.03. NCI-H1915 showed a relative viability of 1.09. HCC-827 was tested, and the relative viability was 0.906. For LXF-289, the relative viability was 0.996. NCI-H2347 showed a relative viability of 0.977. NCI-H661 showed a relative viability of 0.546. For CAL-12T, the relative viability was 0.767. In the case of NCI-H1651, the relative viability is reported as 1.01. Cell Line EPLC-272H has a relative viability of 1.17. For NCI-H23, the relative viability was 0.533. Work on NCI-H1792 yielded a relative viability of 0.661. NCI-H1355 gave a relative viability of 0.855. NCI-H322M showed a relative viability of 1.13. For NCI-H1437, the relative viability was 1.11. Work on NCI-H1755 yielded a relative viability of 1.07. NCI-H2085 gave a relative viability of 0.865. HCC-15 gave a relative viability of 0.935. For RERF-LC-KJ, the relative viability was 0.953. With EKVX the relative viability was 1.09. LC-2-ad gave a relative viability of 0.812. NCI-H1563 was tested, and the relative viability was 0.892. NCI-H1944 was tested, and the relative viability was 1.27. For NCI-H1975, the relative viability was 0.793. In the case of SW 1573, the relative viability is reported as 0.626. With ABC-1 the relative viability was 0.647. NCI-H358 gave a relative viability of 0.511. In the case of NCI-H727, the relative viability is reported as 0.314. SK-LU-1 showed a relative viability of 1.01.
